Measured values reported in patent US6921821B2, “Antagonists of melanin concentrating hormone receptor” (Abbott Laboratories, priority 2002, dated 2005).

Molecular target: T1, murine MCHR (Mus musculus, UniProt Q8JZL2)
T1 construct: expressed in transfected cells; host or cells: HEK293
Assay: Assay for release of intracellular calcium (FLIPR, Fluo-4), inhibition of MCH-induced Ca++ flux
Format: cell-based
Settings: test compound at a dose of 10 μM, HEK293 cells expressing the murine MCHR, read-out: inhibition of MCH (MCH induced Ca++ flux / fluorescence)
Method: Assay for Release of Intracellular Calcium
Activation of the melanin concentrating hormone receptor (MCHR) by MCH induces the release of Ca^++ from intracellular stores. This intracellular calcium release is measured using a fluorometric imaging plate reader (FLIPR™, Molecular Devices Corp.) in conjunction with the Ca^++-sensitive dye Fluo-4. Release of Ca^++ from intracellular stores causes an increase in fluorescence of the dye that is proportional to Ca^++ concentration. Briefly, the assays are performed as follows. HEK293 cells expressing the murine MCHR are plated overnight at 50,000 cells/well in 96-well plates. The following day, culture medium is removed and replaced with 100 μl/well of D-PBS (+glucose and sodium pyruvate) containing 2.5 μM Fluo-4AM (Molecular Probes), 0.01% Pluronic F-127 and 2.5 mM probenecid. Cells are loaded with the Fluo-4 dye for at least one hour at room temp. After loading, the cells are washed gently to remove extracellular dye and 100 μl of D-PBS (+glucose and sodium pyruvate) is added to each well. Test compounds are prepared at 40 μM in 4% DMSO. The cell plate is placed in the FLIPR™ and 50 μl/well of test compound is delivered. The calcium signal is followed for 3 minutes to assay for potential agonist activity by the test compounds. Then 50 μl/well of 12 nM mouse MCH (in D-PBS containing 0.1% BSA) is added and the ligand-induced calcium signal is followed for an additional 3 minutes. Antagonist activity as determined by the test compounds ability to inhibit MCH induced Ca^++ flux is calculated as % inhibition as described by the following formula: % inhibition=[1−((fTC−fB)÷(fMCH−fB))]×100, where fTC=MCH-induced fluorescence in the presence of test compound; fMCH=MCH-induced fluorescence in the absence of test compound; and fB=Baseline fluorescence.
MCH (3 nM) usually elicits a response of 30,000-40,000 relative fluorescence units (RFU) with a baseline of about 1000 RFU. Fluo-4 fluorescence is measured at 488 nm, with an exposure of 0.40 sec. and F-stop=2.0 and the laser set at 0.40-0.60 W constant light output.

T1 sequence (Q8JZL2 whole entry): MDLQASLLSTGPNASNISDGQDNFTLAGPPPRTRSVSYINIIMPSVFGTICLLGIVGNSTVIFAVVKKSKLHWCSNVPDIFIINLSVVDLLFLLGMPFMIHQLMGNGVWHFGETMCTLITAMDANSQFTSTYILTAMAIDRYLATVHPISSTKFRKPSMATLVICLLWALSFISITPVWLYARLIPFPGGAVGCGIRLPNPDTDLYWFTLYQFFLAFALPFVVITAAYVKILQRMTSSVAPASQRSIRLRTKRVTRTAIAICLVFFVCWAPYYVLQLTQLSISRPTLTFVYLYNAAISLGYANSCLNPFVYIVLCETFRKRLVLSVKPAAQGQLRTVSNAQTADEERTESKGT

Row | Structure (SMILES) | inhibition at 10 µM
1 | Cn1c(=O)cc(NC2CCN(Cc3ccc4c(c3)OCO4)CC2)c2cc(C(F)(F)F)ccc21 [Compound V-31, 4-(1-Benzo[1,3]dioxol-5-ylmethyl-piperidin-4-ylamino)-1-methyl-6-trifluoromethyl-1H-quinolin-2-one] | ≥ 50%
2 | CC(c1ccc2c(c1)OCO2)N1CCC(Nc2c(C(=O)N(C)C)c(=O)n(C)c3ccc(Cl)cc23)CC1 (stereo not drawn) [Compound V-34, 4-[1-(1-Benzo[1,3]dioxol-5-yl-ethyl)-piperidin-4-ylamino]-6-chloro-1-methyl-2-oxo-1,2-dihydro-quinoline-3-carboxylic acid dimethylamide] | ≥ 50%
3 | O=c1cc(NC2CCN(Cc3ccc4c(c3)OCO4)CC2)c2cccc3c2n1CCC3 [Compound V-36, 1-(1-Benzo[1,3]dioxol-5-ylmethyl-piperidin-4-ylamino)-6,7-dihydro-5H-pyrido[3,2,1-ij]quinolin-3-one] | ≥ 50%
4 | COC(=O)c1c(NC2CCN(Cc3ccc4c(c3)OCO4)CC2)c2cc(Cl)ccc2n(C)c1=O [Compound V-39, 4-(1-Benzo[1,3]dioxol-5-ylmethyl-piperidin-4-ylamino)-6-chloro-1-methyl-2-oxo-1,2-dihydro-quinoline-3-carboxylic acid methyl ester] | ≥ 50%
5 | CN(C)C(=O)c1c(NC2CCN(Cc3ccc4occc4c3)CC2)c2cc(Cl)ccc2n(C)c1=O [Compound V-40, 4-(1-Benzofuran-5-ylmethyl-piperidin-4-ylamino)-6-chloro-1-methyl-2-oxo-1,2-dihydro-quinoline-3-carboxylic acid dimethylamide] | ≥ 50%
6 | CN(C)C(=O)c1c(NC2CCN(Cc3ccc4c(c3)OCO4)CC2)c2cc(Br)ccc2n(C)c1=O [Compound V-42, 4-(1-Benzo[1,3]dioxol-5-ylmethyl-piperidin-4-ylamino)-6-bromo-1-methyl-2-oxo-1,2-dihydro-quinoline-3-carboxylic acid dimethylamide] | ≥ 50%
7 | Cn1c(=O)c(C2=NC(C)(C)CO2)c(NC2CCN(Cc3ccc4c(c3)OCO4)CC2)c2cc(Cl)ccc21 [Compound V-49, 4-(1-Benzo[1,3]dioxol-5-ylmethyl-piperidin-4-ylamino)-6-chloro-3-(4,4-dimethyl-4,5-dihydro-oxazol-2-yl)-1-methyl-1H-quinolin-2-one] | ≥ 50%
8 | Cn1c(=O)c(C#N)c(NC2CCN(Cc3ccc4c(c3)OCO4)CC2)c2cc(Cl)ccc21 [Compound V-51, 4-(1-Benzo[1,3]dioxol-5-ylmethyl-piperidin-4-ylamino)-6-chloro-1-methyl-2-oxo-1,2-dihydro-quinoline-3-carbonitrile] | ≥ 50%
9 | CON(C)C(=O)c1c(NC2CCN(Cc3ccc4c(c3)OCO4)CC2)c2cc(Cl)ccc2n(C)c1=O [Compound V-52, 4-(1-Benzo[1,3]dioxol-5-ylmethyl-piperidin-4-ylamino)-6-chloro-1-methyl-2-oxo-1,2-dihydro-quinoline-3-carboxylic acid methoxy-methyl-amide] | ≥ 50%
10 | COc1ccc(CN2CCC(Nc3c(C(=O)N(C)C)c(=O)n(C)c4ccc(Cl)cc34)CC2)cc1F [Compound V-54, 6-Chloro-4-[1-(3-fluoro-4-methoxy-benzyl)-piperidin-4-ylamino]-1-methyl-2-oxo-1,2-dihydro-quinoline-3-carboxylic acid dimethylamide] | ≥ 50%
11 | O=c1cc(NC2CC3CCC(C2)N3Cc2ccc3c(c2)OCO3)c2cc(Cl)ccc2n1CC(F)(F)F (stereo not drawn) [Compound V-57] | ≥ 50%
12 | Cn1c(=O)c(C(=O)N2CCCC2)c(NC2CCN(Cc3ccc4c(c3)OCO4)CC2)c2cc(Cl)ccc21 [Compound V-59, 4-(1-Benzo[1,3]dioxol-5-ylmethyl-piperidin-4-ylamino)-6-chloro-1-methyl-3-(pyrrolidine-1-carbonyl)-1H-quinolin-2-one] | ≥ 50%
13 | COc1ccc2c(c1)c(NC1CCN(Cc3ccc4c(c3)OCO4)CC1)c(C(=O)N(C)C)c(=O)n2C [Compound V-60, 4-(1-Benzo[1,3]dioxol-5-ylmethyl-piperidin-4-ylamino)-6-methoxy-1-methyl-2-oxo-1,2-dihydro-quinoline-3-carboxylic acid dimethylamide] | ≥ 50%
14 | COc1ccc2oc(=O)cc(NC3CCN(Cc4ccc5c(c4)OCO5)CC3)c2c1 [II-1, 4-(1-Benzo[1,3]dioxol-5-ylmethyl-piperidin-4-ylamino)-6-methoxy-chromen-2-one] | ≥ 50%
15 | Cc1ccc2oc(=O)cc(NC3CCN(Cc4ccc5c(c4)OCO5)CC3)c2c1 [II-3, 4-(1-Benzo[1,3]dioxol-5-ylmethyl-piperidin-4-ylamino)-6-methyl-chromen-2-one] | ≥ 50%

Results, then the compound that gave them:

Row | inhibition at 10 µM | Structure (SMILES)
16 | ≥ 50% | COC(=O)c1c(NC2CCN(Cc3ccc4ccccc4c3)CC2)c2cc(Cl)ccc2n(C)c1=O [Compound V-30, 6-Chloro-1-methyl-4-(1-naphthalen-2-ylmethyl-piperidin-4-ylamino)-2-oxo-1,2-dihydro-quinoline-3-carboxylic acid methyl ester]
17 | ≥ 50% | COc1ccc(CN2CCC(Nc3c(C#N)c(=O)n(C)c4ccc(Cl)cc34)CC2)cc1F [Compound V-32, 6-Chloro-4-[1-(3-fluoro-4-methoxy-benzyl)-piperidin-4-ylamino]-1-methyl-2-oxo-1,2-dihydro-quinoline-3-carbonitrile]
18 | ≥ 50% | Cn1c(=O)cc(NC2CCN(Cc3ccc4occc4c3)CC2)c2cc(C(F)(F)F)ccc21 [Compound V-33, 4-(1-Benzofuran-5-ylmethyl-piperidin-4-ylamino)-1-methyl-6-trifluoromethyl-1H-quinolin-2-one]
19 | ≥ 50% | O=c1cc(NC2CCN(Cc3ccncc3)CC2)c2cc(Cl)ccc2n1Cc1ccncc1 [Compound V-35, 6-Chloro-1-pyridin-4-ylmethyl-4-(1-pyridin-4-ylmethyl-piperidin-4-ylamino)-1H-quinolin-2-one]
20 | ≥ 50% | COC(=O)c1c(NC2CCN(Cc3ccc4ccccc4c3)CC2)c2cc(Cl)ccc2[nH]c1=O [Compound V-37, 6-Chloro-4-(1-naphthalen-2-ylmethyl-piperidin-4-ylamino)-2-oxo-1,2-dihydro-quinoline-3-carboxylic acid methyl ester]
21 | ≥ 50% | Cc1ccc2c(c1)c(NC1CCN(C/C=C/c3ccccc3)CC1)cc(=O)n2C [Compound V-38, 1,6-Dimethyl-4-[1-(3-phenyl-allyl)-piperidin-4-ylamino]-1H-quinolin-2-one]
22 | ≥ 50% | CC(C)c1ccc2c(c1)c(NC1CCN(Cc3ccc4c(c3)OCO4)CC1)cc(=O)n2C [Compound V-43, 4-(1-Benzo[1,3]dioxol-5-ylmethyl-piperidin-4-ylamino)-6-isopropyl-1-methyl-1H-quinolin-2-one]
23 | ≥ 50% | O=c1cc(NC2CCN(C/C=C/c3ccccc3)CC2)c2ccccc2n1Cc1ccccc1 [Compound V-44, 1-Benzyl-4-[1-(3-phenyl-allyl)-piperidin-4-ylamino]-1H-quinolin-2-one]
24 | ≥ 50% | Cn1c(=O)cc(NC2CCN(Cc3ccc4ccccc4c3)CC2)c2cc(O)ccc21 [Compound V-46, 6-Hydroxy-1-methyl-4-(1-naphthalen-2-ylmethyl-piperidin-4-ylamino)-1H-quinolin-2-one]
25 | ≥ 50% | Cn1c(=O)cc(NC2CCN(C/C=C/c3ccccc3)CC2)c2ccccc21 [Compound V-47, 1-Methyl-4-[1-(3-phenyl-allyl)-piperidin-4-ylamino]-1H-quinolin-2-one]
26 | ≥ 50% | N#Cc1c(NC2CCN(Cc3ccc4ccccc4c3)CC2)c2cc(Cl)ccc2[nH]c1=O [Compound V-53, 6-Chloro-4-(1-naphthalen-2-ylmethyl-piperidin-4-ylamino)-2-oxo-1,2-dihydro-quinoline-3-carbonitrile]
27 | ≥ 50% | O=c1cc(NC2CCN(Cc3ccc4c(c3)OCO4)CC2)c2cc(C(F)(F)F)ccc2n1CC(F)(F)F [Compound V-58, 4-(1-Benzo[1,3]dioxol-5-ylmethyl-piperidin-4-ylamino)-1-(2,2,2-trifluoro-ethyl)-6-trifluoromethyl-1H-quinoline-2-one]
28 | ≥ 50% | CCn1c(=O)cc(NC2CCN(C/C=C/c3ccccc3)CC2)c2cc(Cl)ccc21 [Compound V-63, 6-Chloro-1-ethyl-4-[1-(3-phenyl-allyl)-piperidin-4-ylamino]-1H-quinolin-2-one]
29 | ≥ 50% | O=c1cc(NC2CCN(Cc3ccc4ccccc4c3)CC2)c2cc(Cl)ccc2o1 [II-2, 6—Chloro-4-(1-naphthalen-2-ylmethyl-piperidin-4-ylamino)-chromen-2-one]
30 | ≥ 50% | O=c1cc(NC2CCN(Cc3ccc4c(c3)OCO4)CC2)c2cc(Cl)ccc2o1 [II-4, 4-(1-Benzo[1,3]dioxol-5ylmethyl-piperidin-4-ylamino)-6-chloro-chromen-2-one]
